Patent US20240116985A1, “STAPLED PEPTIDES AND METHODS THEREOF” (priority 2020, published 2024)

Experiment: CHI Log D procedure
Format: physicochemical
Details: pH 7.4

Compound | CHI Log D
CC(=O)N[C@@H](Cc1ccccc1)C(=O)N[C@@H](CC(=O)O)C(=O)N[C@@H](C)C(=O)N[C@]1(C)CCCCCCC=CCOC(=O)N2CC[C@@](C(=O)N[C@@H](Cc3ccccc3)C(=O)N[C@@H](Cc3c[nH]c4ccccc34)C(=O)N[C@@H](CCC(N)=O)C(N)=O)(C2)NC(=O)[C@H](C(C)C)NC(=O)[C@H](Cc2ccccc2)NC(=O)[C@H](C)NC(=O)[C@H](C)NC(=O)[C@H](CCC(N)=O)NC(=O)[C@H](CC(=O)O)NC1=O [I-59, Ac-Phe-Asp-Ala-R8-Asp-Gln-Ala-Ala-Phe-Val-PyrS-Phe-Trp-Gln-NH2] | 1.531
CC(=O)N1CCC[C@]12CC=CCCCC1(CCCC=CCCCCCC[C@@](C)(C(=O)N[C@@H](Cc3ccccc3)C(=O)N[C@@H](Cc3c[nH]c4ccc(C5CC5)cc34)C(=O)N[C@@H](CCC(N)=O)C(N)=O)NC(=O)[C@H](C(C)C)NC(=O)[C@H](Cc3ccccc3)NC(=O)[C@H](C)NC(=O)[C@H](C)NC(=O)[C@H](CCC(=O)O)NC(=O)[C@H](CC(=O)O)NC1=O)NC(=O)[C@H](C)NC(=O)[C@H](CC(=O)O)NC2=O (stereo partly drawn) [I-170, Ac-PL3-Asp-Ala-B5-Asp-Glu-Ala-Ala-Phe-Val-S8-Phe-5CpW-Gln-NH2] | 2.138
CC(=O)N[C@@H](Cc1ccccc1)C(=O)N[C@@H](CC(=O)O)C(=O)N[C@@H](C)C(=O)N[C@]1(C)CCCCCCC=CCOC(=O)N2CC[C@@](C(=O)N[C@@H](Cc3ccccc3)C(=O)N[C@@H](Cc3c[nH]c4ccccc34)C(=O)N[C@@H](CCC(N)=O)C(N)=O)(C2)NC(=O)[C@H](C(C)C)NC(=O)[C@H](Cc2cccnc2)NC(=O)[C@H](C)NC(=O)[C@H](C)NC(=O)[C@H](CC(=O)O)NC(=O)[C@H](CC(=O)O)NC1=O (single isomer, unassigned) [I-88, Ac-Phe-Asp-Ala-R8-Asp-Asp-Ala-Ala-3PyrA-Val-PyrS-Phe-Trp-Gln-NH2] | 1.239
CC(=O)N[C@@H](Cc1ccccc1)C(=O)N[C@@H](CC(=O)O)C(=O)N[C@@H](C)C(=O)N[C@]1(C)CN(C)C(=O)OCC=CCCCCCC[C@@](C)(C(=O)N[C@@H](Cc2ccccc2)C(=O)N[C@@H](Cc2c[nH]c3ccccc23)C(=O)N[C@@H](CCC(N)=O)C(N)=O)NC(=O)[C@H](C(C)C)NC(=O)[C@H](Cc2ccccc2)NC(=O)[C@H](C)NC(=O)[C@H](C)NC(=O)[C@H](CC(=O)O)NC(=O)[C@H](CC(=O)O)NC1=O (single isomer, unassigned) [I-44, Ac-Phe-Asp-Ala-RgN-Asp-Asp-Ala-Ala-Phe-Val-S8-Phe-Trp-Gln-NH2] | 1.312
CC(=O)N1CCC[C@]12CC=CCCCC1(CCCC=CCCCCCC[C@@](C)(C(=O)N[C@@H](Cc3ccccc3)C(=O)N[C@@H](Cc3c[nH]c4ccccc34)C(=O)N[C@@H](CCC(N)=O)C(N)=O)NC(=O)[C@H](C(C)C)NC(=O)[C@H](Cc3ccccc3)NC(=O)[C@H](C)NC(=O)[C@H](C)NC(=O)[C@H](Cc3c[nH]cn3)NC(=O)[C@H](CC(=O)O)NC1=O)NC(=O)[C@H](C)NC(=O)[C@H](CC(=O)O)NC2=O (stereo partly drawn) [I-304, Ac-PL3-Asp-Ala-B5-Asp-His-Ala-Ala-Phe-Val-S8-Phe-Trp-Gln-NH2] | 2.339
CC[C@H](C)[C@@H]1NC(=O)[C@H](CC(=O)O)NC(=O)[C@]2(CC=CCCCC3(CCCC=CCCCCCC[C@@](C)(C(=O)N[C@@H](Cc4ccccc4)C(=O)N[C@@H](Cc4csc5ccccc45)C(=O)N[C@@H](CCC(N)=O)C(N)=O)NC(=O)[C@H](CCC(N)=O)NC(=O)[C@H](Cc4ccccc4)NC(=O)[C@H](C)NC(=O)[C@H](C)NC(=O)[C@H](CCC(=O)O)NC(=O)[C@H](CNS(=O)(=O)C(F)(F)F)NC3=O)NC1=O)CCCN2C(C)=O (stereo partly drawn) [I-630, Ac-PL3-Asp-Ile-B5-[Tf]Dap-Glu-Ala-Ala-Phe-Gln-S8-Phe-BztA-Gln-NH2] | 4.36
CC(=O)N[C@@H](Cc1ccccc1)C(=O)N[C@@H](CC(=O)O)C(=O)N[C@]1(C)CCCCCCC=CCCC[C@@](C)(C(=O)N[C@@H](C)C(=O)N[C@@H](Cc2ccccc2)C(=O)N[C@@H](Cc2c[nH]c3ccccc23)C(=O)N[C@@H](CCC(N)=O)C(N)=O)NC(=O)[C@H](Cc2ccccc2)NC(=O)[C@H](C)NC(=O)[C@H](C)NC(=O)[C@H](CC(=O)O)NC(=O)[C@H](CC(=O)O)NC(=O)[C@H](C)NC1=O (single isomer, unassigned) [I-48, Ac-Phe-Asp-R8-Ala-Asp-Asp-Ala-Ala-Phe-S5-Ala-Phe-Trp-Gln-NH2] | 1.37
CC[C@H](C)[C@@H]1NC(=O)C[C@H](CC(=O)O)NC(=O)[C@]2(CC=CCCCC3(CCCC=CCCCCCC[C@@](C)(C(=O)N[C@@H](Cc4ccccc4)C(=O)N[C@@H](Cc4csc5ccccc45)C(=O)N[C@@H](CCC(N)=O)C(N)=O)NC(=O)[C@H](CCC(N)=O)NC(=O)[C@H](Cc4ccccc4)NC(=O)[C@H](C)NC(=O)[C@H](C)NC(=O)[C@H](CCC(=O)O)NC(=O)[C@H](CC(=O)O)NC3=O)NC1=O)CCCN2C(C)=O (stereo partly drawn) [I-670, Ac-PL3-RbGlu-Ile-B5-Asp-Glu-Ala-Ala-Phe-Gln-S8-Phe-BztA-Gln-NH2] | 2.16
CC(=O)N[C@@H](Cc1ccccc1)C(=O)N[C@@H](CC(=O)O)C(=O)N[C@@H](C)C(=O)N[C@]1(C)CCCCCCC=CCOC(=O)N2CC[C@@](C(=O)N[C@@H](Cc3cccnc3)C(=O)N[C@@H](Cc3c[nH]c4ccccc34)C(=O)N[C@@H](CCC(N)=O)C(N)=O)(C2)NC(=O)[C@H](C(C)C)NC(=O)[C@H](Cc2ccccc2)NC(=O)[C@H](C)NC(=O)[C@H](C)NC(=O)[C@H](CC(=O)O)NC(=O)[C@H](CC(=O)O)NC1=O (single isomer, unassigned) [I-83, Ac-Phe-Asp-Ala-R8-Asp-Asp-Ala-Ala-Phe-Val-PyrS-3PyrA-Trp-Gln-NH2] | 1.032

Same assay, conditions: pH 7.4, CHI Log D

Compound | chromatographic logD
CC(=O)N1CCC[C@]12CC=CCCCC1(CCCC=CCCCCCC[C@@](C)(C(=O)N[C@@H](CCc3ccc(O)cc3)C(=O)N[C@@H](Cc3c[nH]c4ccccc34)C(=O)N[C@@H](CCC(N)=O)C(N)=O)NC(=O)[C@H](C(C)C)NC(=O)[C@H](Cc3ccccc3)NC(=O)[C@H](C)NC(=O)[C@H](C)NC(=O)[C@H](CC(=O)O)NC(=O)[C@H](CC(=O)O)NC1=O)NC(=O)[C@H](C)NC(=O)[C@H](CC(=O)O)NC2=O (stereo partly drawn) [I-269, Ac-PL3-Asp-Ala-B5-Asp-Asp-Ala-Ala-Phe-Val-S8-hTyr-Trp-Gln-NH2] | 1.81
CC(=O)N[C@@H](Cc1ccccc1)C(=O)N[C@@H](CC(=O)O)C(=O)N[C@@H](C)C(=O)N[C@]1(C)CCCCCCC=CCOC(=O)N2CC[C@@](C(=O)N[C@@H](Cc3ccccc3)C(=O)N[C@@H](Cc3c[nH]c4ccccc34)C(=O)N[C@@H](CCC(N)=O)C(N)=O)(C2)NC(=O)[C@H](C(C)C)NC(=O)[C@H](Cc2ccccc2)NC(=O)[C@H](C)NC(=O)[C@H](C)NC(=O)[C@H](Cc2cccc3ccccc23)NC(=O)[C@H](CC(=O)O)NC1=O [I-114, Ac-Phe-Asp-Ala-R8-Asp-1NapA-Ala-Ala-Phe-Val-PyrS-Phe-Trp-Gln-NH2] | 2.11
CC(=O)N1CCC[C@]12CC=CCCCC1(CCCC=CCCCCCC[C@@](C)(C(=O)N[C@@H](Cc3ccccc3)C(=O)N[C@@H](Cc3ccc(-c4ccccc4)cc3)C(=O)N[C@@H](CCC(N)=O)C(N)=O)NC(=O)[C@H](C(C)C)NC(=O)[C@H](Cc3ccccc3)NC(=O)[C@H](C)NC(=O)[C@H](C)NC(=O)[C@H](CCC(=O)O)NC(=O)[C@H](CC(=O)O)NC1=O)NC(=O)[C@H](C)NC(=O)[C@H](CC(=O)O)NC2=O (stereo partly drawn) [I-145, Ac-PL3-Asp-Ala-B5-Asp-Glu-Ala-Ala-Phe-Val-S8-Phe-Bip-Gln-NH2] | 2.28
COc1cccc(C[C@H](NC(=O)[C@]23CCN(C2)C(=O)OCC=CCCCCCC[C@@](C)(NC(=O)[C@H](C)NC(=O)[C@H](CC(=O)O)NC(=O)[C@H](Cc2ccccc2)NC(C)=O)C(=O)N[C@@H](CC(=O)O)C(=O)N[C@@H](CC(=O)O)C(=O)N[C@@H](C)C(=O)N[C@@H](C)C(=O)N[C@@H](Cc2ccccc2)C(=O)N[C@@H](C(C)C)C(=O)N3)C(=O)N[C@@H](Cc2c[nH]c3ccccc23)C(=O)N[C@@H](CCC(N)=O)C(N)=O)c1 (single isomer, unassigned) [I-101, Ac-Phe-Asp-Ala-R8-Asp-Asp-Ala-Ala-Phe-Val-PyrS-3OMeF-Trp-Gln-NH2] | 1.33
CC(=O)N1CCC[C@]12CC=CCCCC1(CCCC=CCCCCCC[C@@](C)(C(=O)N[C@@H](Cc3ccccc3)C(=O)NC(Cc3cccc4cc(F)ccc34)C(=O)N[C@@H](CCC(N)=O)C(N)=O)NC(=O)[C@H](C(C)C)NC(=O)[C@H](Cc3ccccc3)NC(=O)[C@H](C)NC(=O)[C@H](C)NC(=O)[C@H](CCC(=O)O)NC(=O)[C@H](CC(=O)O)NC1=O)NC(=O)[C@H](C)NC(=O)[C@H](CC(=O)O)NC2=O (stereo partly drawn) [I-142, Ac-PL3-Asp-Ala-B5-Asp-Glu-Ala-Ala-Phe-Val-S8-Phe-6F1NapA-Gln-NH2] | 2.18
CC(=O)N1CCC[C@]12CC=CCCCC1(CCCC=CCCCCCC[C@@](C)(C(=O)N[C@@H](Cc3ccccc3)C(=O)N[C@@H](Cc3c[nH]c4ccccc34)C(=O)N[C@@H](CCC(N)=O)C(N)=O)NC(=O)[C@H](C(C)C)NC(=O)[C@H](Cc3ccccc3)NC(=O)[C@H](C)NC(=O)[C@H](C)NC(=O)[C@H](CCc3ccccc3)NC(=O)[C@H](CC(=O)O)NC1=O)NC(=O)[C@H](C)NC(=O)[C@H](CC(=O)O)NC2=O (stereo partly drawn) [I-195, Ac-PL3-Asp-Ala-B5-Asp-hPhe-Ala-Ala-Phe-Val-S8-Phe-Trp-Gln-NH2] | 2.98
CC(=O)N[C@@H](Cc1ccccc1)C(=O)N[C@@H](CC(=O)O)C(=O)N[C@@H](C)C(=O)N[C@]1(C)CCCCCCC=CCOC(=O)N2CC[C@@](C(=O)N[C@@H](Cc3ccccc3)C(=O)N[C@@H](Cc3c[nH]c4ccccc34)C(=O)N[C@@H](CCC(N)=O)C(N)=O)(C2)NC(=O)[C@H](C(C)C)NC(=O)[C@H](Cc2ccc3ccccc3c2)NC(=O)[C@H](C)NC(=O)[C@H](C)NC(=O)[C@H](CC(=O)O)NC(=O)[C@H](CC(=O)O)NC1=O (single isomer, unassigned) [I-112, Ac-Phe-Asp-Ala-R8-Asp-Asp-Ala-Ala-2NapA-Val-PyrS-Phe-Trp-Gln-NH2] | 1.4
CC(=O)N[C@@H](Cc1ccccc1)C(=O)N[C@@H](CC(=O)O)C(=O)N[C@@H](C)C(=O)N[C@]1(C)CCCCCCC=CCOC(=O)N2CC[C@@](C(=O)N[C@@H](Cc3ccccc3)C(=O)N[C@@H](Cc3c[nH]c4ccccc34)C(=O)N[C@@H](CCC(N)=O)C(N)=O)(C2)NC(=O)[C@H](C(C)C)NC(=O)[C@H](CC2CCCCC2)NC(=O)[C@H](C)NC(=O)[C@H](C)NC(=O)[C@H](CC(=O)O)NC(=O)[C@H](CC(=O)O)NC1=O (single isomer, unassigned) [I-74, Ac-Phe-Asp-Ala-R8-Asp-Asp-Ala-Ala-Cha-Val-PyrS-Phe-Trp-Gln-NH2] | 1.33
